Reference: ChEMBL document CHEMBL3507680, “University of Dundee, Gates Library screen for HepG2 cell viability”

Assay: Human HepG2 cell viability assay in 384 well format
Type: toxicity, cell-based
Design: dose 125 nL, time 70.5 hour; concentration not given beside the values
Conditions: HepG2 cells, read-out: Inhibition

SMILES | cytotoxicity at 70.5 h [%]
COCCN(C)C(=O)c1ccccc1-n1cc(CN(C)C)cn1 | -5.25
Cc1ccccc1CC(=O)N1CC[C@@](O)(CNS(C)(=O)=O)[C@H](O)C1 | 0.727
CN(C)Cc1cnn(-c2ccccc2C(=O)N(C)Cc2ccccc2)c1 | -5.67
Cc1nc(C(=O)N(C)[C@@H]2CCC[C@@H](Oc3ccccc3)[C@@H]2O)co1 | 6.12
Cc1noc(C)c1-c1ccc(C2CCCN2C(=O)c2cccnc2)nc1 (stereo not drawn) | -4.62
COCc1nc(C2CCN(Cc3ncc[nH]3)CC2)no1 | 6.2
CC(=O)N1CCC(c2ncc3c(n2)CCN(C(=O)c2ccccc2)C3)C1 (stereo not drawn) | -2.46
COCC(=O)N1CCCC(Cc2cnc(-c3c(C)n[nH]c3C)cn2)C1 (stereo not drawn) | 0.347
Cc1nc2ccccn2c1CC(=O)N[C@@H]1CCC[C@@H](N2CCCC2)[C@@H]1O | -1.64
CN(C(=O)c1ccn(C)n1)[C@@H]1CCC[C@@H](Oc2ccccc2)[C@@H]1O | -4.51
O[C@H]1CN(CCOc2ccc(F)cc2)CC[C@@]12CCCO2 | -2.62
CS(=O)(=O)c1cn[nH]c1C1CCCN1C(=O)c1cccnc1 (stereo not drawn) | -2.09
O=C(N[C@@H]1CCC[C@@H](N2CCOCC2)[C@@H]1O)c1ncccn1 | 6.75
O=S(=O)(c1ccc(F)cc1)N1CCCC(c2nccs2)C1 (stereo not drawn) | -2.41
O=S(=O)(c1ccccc1)N1CCCC(c2nccs2)C1 (stereo not drawn) | -2
COCC(=O)N1CCCC1c1nc(O)cc(C(C)C)n1 (stereo not drawn) | 1.53
COCCC(=O)N1CCCC1c1nc(O)cc(C(C)C)n1 (stereo not drawn) | -0.774
CC(C)c1cc(O)nc(C2CCCN2C(=O)C(C)(C)C)n1 (stereo not drawn) | 26.4
CC(C)c1cc(O)nc(C2CCCN2C(=O)C2CC2)n1 (stereo not drawn) | -1.44
CS(=O)(=O)c1cn[nH]c1C1CCCCN1C(=O)c1ccsc1 (stereo not drawn) | -1.64
O=S(=O)(c1cccs1)N1CCCC(c2nccs2)C1 (stereo not drawn) | -3.29
CC(=O)N1CCC(C(=O)N2CCCC(Cc3ccccn3)C2)CC1 (stereo not drawn) | -8.43
Cc1cc(C)nc(C2CCCN2c2ccnc(C)n2)n1 (stereo not drawn) | -0.201
CNC(=O)c1cn[nH]c1C1(C)CCCN(Cc2ccccn2)C1 (stereo not drawn) | -7.3

SMILES | cytotoxicity at 70.5 h [%]
CCCn1cc(CN2CCCC2c2cccc(-n3ccnc3)n2)cn1 (stereo not drawn) | -7.28
CN1CCC(NC(=O)C2CN(c3cncnc3)CCO2)CC1 (stereo not drawn) | -7.93
Cc1noc(C2(C)CCCN(C(=O)c3cnn(C)c3)C2)n1 (stereo not drawn) | -7.96
COCc1nc(C2CCN(Cc3nccn3C)CC2)no1 | -4.44
CCN(Cc1ccncc1)CC1(O)CCN(C(=O)c2cnn(C)c2)C1 (stereo not drawn) | -4.91
Cc1nc(Nc2nncs2)cc(C2CCCN2C)n1 (stereo not drawn) | 3.74
CCc1nnc(Nc2cccc(C3CCN(CC4CC4)CC3)n2)s1 | -7.67
CN(C)C(=O)CN1CCCCC1c1nc(N)ncc1-c1ccc(Cl)cc1 (stereo not drawn) | -15.8
Cc1cc(N)nc(C2(C)CCCN2C(=O)c2cnccn2)n1 (stereo not drawn) | 4.65
Cc1nc(Nc2nnc(C)s2)cc(C2CCCN2c2ccncn2)n1 (stereo not drawn) | -8.94
NC(=O)CN1CCC(c2cncc(-c3cccc(Cl)c3)n2)CC1 | 15.3
Cc1nc(Nc2ncccn2)cc(C2CCN(CC(C)C)C2)n1 (stereo not drawn) | -15.1
CCC(=O)N1CCC(Cc2ccccc2-c2ccccc2F)(C(N)=O)C1 (stereo not drawn) | -8.54
CCC(=O)N1CCC(Cc2ccccc2-c2cccc(C)c2)(C(N)=O)C1 (stereo not drawn) | 12.2
CCN(CC(O)c1ccc(C)cc1)C(=O)NC(C)C (stereo not drawn) | -1.93
CCN1CCN(c2cncc(Cl)n2)CC1 | 26.6
CC(C)(C)c1ncc(CNCC2CN(C3CC3)CCO2)s1 (stereo not drawn) | -2.48
COCCNC(=O)CN(C)C(C)c1nc(C)no1 (stereo not drawn) | 3.14
CCc1nc(CSCc2csc(CS(C)(=O)=O)n2)cs1 | -1.17
CCN(C)C(=O)c1cccc(C(=O)N(C)Cc2cccc(O)c2)c1 | 25.8
CC(C)CN(CC(O)c1ccccc1)C(=O)NC(C)C (stereo not drawn) | -4.36
CC(C)c1ccc(CNC(c2ccc(F)cn2)C(C)C)cc1 (stereo not drawn) | 0.89
CCN1CCOC(CNCc2ccc(C)s2)C1 (stereo not drawn) | -4.21
CC1CCN(C(=O)CSCCN2CCOCC2)CC1 | 4.07

SMILES | cytotoxicity at 70.5 h [%]
COc1ccccc1CC(C)CC(=O)NS(=O)(=O)C(C)C (stereo not drawn) | 9.2
Cc1cc(C)cc(NCCC(=O)NC2CCCCC2)c1 | 1.57
O=C(C(c1ccccc1)S(=O)(=O)c1ccccn1)N1CCCC1 (stereo not drawn) | -2.5
Cc1cccc(-c2ccc(C(=O)N3CCSCC3)c(=O)[nH]2)c1 | 0.198
O=C(CCNc1ccccc1)NC1CCN(C(=O)C2CCCCC2)CC1 | -5.78
Cc1cnn(CC2CN(CC(=O)Nc3c(C)nn(C)c3C)CCO2)c1 (stereo not drawn) | -4.95
CC(C)OCCC(=O)NS(=O)(=O)N1CCOc2ccccc21 | -0.303
Cc1cc(NC(=O)CNC2CCc3ncnn3C2)on1 (stereo not drawn) | 9.31
CCCS(=O)(=O)NCC(O)c1c(Cl)cccc1Cl (stereo not drawn) | -0.597
O=C(NC1CCN(CC2CC2)C1)N1CCC(OC2CCCCC2)CC1 (stereo not drawn) | 14.5
O=C(NC1CCN(CC2CCCC2)C1)N1CCC(OCC2CC2)CC1 (stereo not drawn) | 6.83
Cn1cc(CNC2CCCOc3c2ccc2ccccc32)cn1 (stereo not drawn) | 2.1
O=S(=O)(Cc1ccccc1Cl)CC(O)CO (stereo not drawn) | 4.74
O=S(=O)(CCO)CCc1ccccc1Cl | -9.35
Cc1ncccc1NS(=O)(=O)Cc1cccc(F)c1 | -2.53
Cc1nc2cc(NCc3cnn(C)c3)ccc2n1C | -2.05
Cc1ccc(Br)cc1NC(=O)NC1CCC2(C1)OCCO2 (stereo not drawn) | 18.1
COc1cc(Cl)c(CN2CCC(C(N)=O)C2)cc1Cl (stereo not drawn) | 4.93
CC1CCN(S(=O)(=O)N2CCCN(CC3CCCO3)CC2)CC1 (stereo not drawn) | 13.3
CN1CCCC(CNC(=O)N(C)Cc2ccc(Cl)c(F)c2)C1 (stereo not drawn) | 7.7
CCOC(C)c1nccn1Cc1cc(C)on1 (stereo not drawn) | -1.6
CC(NCCn1cccn1)c1ccccc1Cl (stereo not drawn) | 10.3
O=C(CSCc1ccccn1)NCC1CC1 | 0.905
CCC(O)(CNCc1cc[nH]n1)c1ccc(Br)cc1 (stereo not drawn) | 6.78

SMILES | cytotoxicity at 70.5 h [%]
Cc1c(NCc2ccccc2C#N)cccc1-n1cnnn1 | -3.47
CC(C(=O)NC1CC1)S(=O)(=O)Cc1noc(C(C)(C)C)n1 (stereo not drawn) | -1.87
CC(C)N(C)S(=O)(=O)NCc1cccnc1N(C)C | -4.22
CC(C(=O)NC1CC1)S(=O)(=O)Cc1nc(Cc2ccccc2)no1 (stereo not drawn) | -0.763
CC(C(=O)NC1CCCC1)S(=O)(=O)Cc1noc(C(C)(C)C)n1 (stereo not drawn) | 7.9
c1ccc2c(c1)OCCC2NCc1ccc(N2CCOCC2)cc1 (stereo not drawn) | -2.79
O=C(c1cccnc1O)N1CCOC(c2ccc(Cl)cc2)C1 (stereo not drawn) | -0.483
Cc1cc(N(Cc2cccnc2)C2CC2)n2nc(C(F)(F)F)nc2n1 | 9.82
CN1CCC(CNC(=O)NCc2ccc(N(C)C)cc2)CC1 | -2.97
O=C1CSc2ccc(C(=O)N3CCCC(n4cccn4)C3)cc2N1 (stereo not drawn) | -0.55
Fc1ccc2c(c1)CCC2NCc1ccc(N2CCOCC2)cc1 (stereo not drawn) | 7.55
O=C1COc2cc(C(=O)N3CCCC(n4ccnc4)C3)ccc2N1 (stereo not drawn) | -1.66
COc1ccc(-c2noc(C3=NN(C)C(=O)CC3)n2)cc1OC | -3.46
CCCC(C)CS(=O)(=O)NCc1cccnc1OC (stereo not drawn) | 1.49
CC(C)Cc1nc(CN2CCC(N3CCN(C)C3=O)CC2)no1 | -1.18
Cc1ccc(OCc2cccc(C(=O)N(C)C(C)CC#N)c2)cn1 (stereo not drawn) | 0.55
CN1N=C(c2nc(Cc3cccc(Br)c3)no2)CCC1=O | -2.2
Cc1[nH]ncc1CCCNC(=O)N1CCN2CCCCC2C1 (stereo not drawn) | 8.45
CCc1oc(C(=O)N2CCCC(c3nnn[nH]3)C2)cc1C (stereo not drawn) | -4.85
COc1ccc(Cc2noc(C3=NN(C)C(=O)CC3)n2)cc1OC | -2.26
COCCN(Cc1noc(-c2ccc(OC)cc2)n1)C1CC1 | -0.841
CCN(CC(C)C#N)C(=O)c1cccc(COc2ccc(C)nc2)c1 (stereo not drawn) | -4.47
N#CCCN(CC1CCOC1)Cn1ccc(-c2ccsc2)n1 (stereo not drawn) | 0.369
CC(C(=O)N1CCCC1)S(=O)(=O)Cc1noc(C(C)(C)C)n1 (stereo not drawn) | -2.28

SMILES | cytotoxicity at 70.5 h [%]
CC(O)CN1CCC(CN(C)Cc2cc(F)cc3cccnc23)CC1 (stereo not drawn) | -2.25
O=C(c1cnc(-c2ccccc2)s1)N1CCC2(CC1)OCCO2 | 7.39
Cc1cc(C)n(CC(C)CNC(=O)NCc2ccco2)n1 (stereo not drawn) | -10.4
CCN(CC)S(=O)(=O)c1cc(NC(=O)CCc2cscn2)ccc1C | -6.12
CC(C)CC(NC(=O)CN(C)C(=O)c1ccco1)c1cccs1 (stereo not drawn) | -9.94
CC(C)CC(NC(=O)CN(C)c1cnccn1)c1cccs1 (stereo not drawn) | -6.01
CCC(=O)NC(CC(C)C)c1cccs1 (stereo not drawn) | -14
Oc1cccc(CNCCC2CCCO2)c1 (stereo not drawn) | -12.5
CC(C)N(C)C(=O)C1CSCN1S(=O)(=O)c1ccccc1F (stereo not drawn) | -9.21
Cn1ccc(C(=O)Nc2cccc(-c3ccc4c(c3)CCO4)n2)cc1=O | -20.6
O=C1C=CC=N/C1=C(/O)NCCNS(=O)(=O)N1CCCCCC1 | -9.06
O=C(COC1CCCC1)N1CCC(C(O)c2ccc(F)cc2)CC1 (stereo not drawn) | -8.09
Cc1ccc(C(=O)NCCS(=O)(=O)N2CCSCC2)o1 | 3.19
Cc1ccccc1C1(CNCc2cnc(N3CCOCC3)nc2)CC1 | 5.8
Cc1ncccc1C(=O)NCC(C)Oc1ccc(F)cc1 (stereo not drawn) | 24.4
CCc1ccc(C(COC)NC(=O)c2ccsc2)o1 (stereo not drawn) | -3.72
CC(C)c1cc(C(=O)N2CCc3nc(C4CCCN4)ncc3C2)cs1 (stereo not drawn) | 0.261
Clc1ccccc1OCCc1cc(C2CCNC2)n[nH]1 (stereo not drawn) | -4.47
Cc1csc(CCNCc2cnc3c(c2)c(C)nn3C)n1 | 5.91
O=C1CC(NCc2cnc(N3CCCC3)nc2)CN1c1ccccc1 (stereo not drawn) | 1.08
Cc1ccc(CN(CCCn2ccnc2)Cc2[nH]cnc2C)s1 | 2.51
Cc1nc(Nc2cnccn2)cc(C2CN(C(C)C)C2)n1 | -6.87
